Species on record: Rattus norvegicus
Assay: DrugMatrix - Regimen: Daily Repeat
Format: toxicity, organism-based, Sprague-Dawley
Design: regimen Daily Repeat, gender Male, age 6-8 weeks
Details: in vivo, po, route oral GAVAGE, vehicle .5 % CMC; for ABSOLUTE BASOPHIL / ABSOLUTE EOSINOPHIL / ABSOLUTE LYMPHOCYTE / ABSOLUTE MONOCYTE / ABSOLUTE SEGMENTED NEUTROPHIL / BASOPHIL / EOSINOPHIL / ERYTHROCYTE COUNT / HEMATOCRIT / HEMOGLOBIN / LEUKOCYTE COUNT / LYMPHOCYTE / MEAN CORPUSCULAR HEMOGLOBIN / MEAN CORPUSCULAR HEMOGLOBIN CONCENTRATION / MEAN CORPUSCULAR VOLUME / MONOCYTE / NEUTROPHIL / NUCLEATED RED BLOOD CELLS / PLATELET COUNT: tissue Blood; for ALANINE AMINOTRANSFERASE / ALBUMIN / ALKALINE PHOSPHATASE / ASPARTATE AMINOTRANSFERASE / BLOOD UREA NITROGEN / CARBON DIOXIDE / CHLORIDE / CHOLESTEROL / CREATINE PHOSPHOKINASE / CREATININE / GLUCOSE / LACTATE DEHYDROGENASE / LIPASE / PHOSPHORUS / POTASSIUM / SODIUM / TOTAL BILIRUBIN / TOTAL PROTEIN / URIC ACID: tissue Plasma
[1] = 34 mg/kg, 72 h, dose level Low, time 3 day
[2] = 34 mg/kg, 120 h, dose level Low, time 5 day
[3] = 364 mg/kg, 72 h, dose level High, time 3 day
[4] = 364 mg/kg, 120 h, dose level High, time 5 day

## Cc1cccc(Nc2cc(Cl)nc(SCC(=O)O)n2)c1C [PIRINIXIC ACID]
[1]
  ABSOLUTE BASOPHIL: 0 CELLS/uL
  ABSOLUTE EOSINOPHIL: 24.33 CELLS/uL
  ABSOLUTE LYMPHOCYTE: 9231.67 CELLS/uL
  ABSOLUTE MONOCYTE: 145 CELLS/uL
  ABSOLUTE SEGMENTED NEUTROPHIL: 1199 CELLS/uL
  BASOPHIL: 0%
  EOSINOPHIL: 0.33%
  ERYTHROCYTE COUNT: 5.01 x10E6/uL
  HEMATOCRIT: 31.77%
  HEMOGLOBIN: 11.67 G/DL
  LEUKOCYTE COUNT: 10.6 x10E3/uL
  LYMPHOCYTE: 85.67%
  MEAN CORPUSCULAR HEMOGLOBIN: 23.3 pg
  MEAN CORPUSCULAR HEMOGLOBIN CONCENTRATION: 36.7 G/DL
  MEAN CORPUSCULAR VOLUME: 63.5 fL
  MONOCYTE: 1.67%
  NEUTROPHIL: 12.33%
  NUCLEATED RED BLOOD CELLS: 0 /100WBC
  PLATELET COUNT: 1123.33 x10E3/uL
  ALANINE AMINOTRANSFERASE: 55.67 u/L
  ALBUMIN: 4.73 G/DL
  ALKALINE PHOSPHATASE: 457.33 u/L
  ASPARTATE AMINOTRANSFERASE: 87.33 u/L
  BLOOD UREA NITROGEN: 13.33 mg/dL
  CARBON DIOXIDE: 36.67 mmol/L
  CHLORIDE: 100.33 MEQ/L
  CHOLESTEROL: 52.67 mg/dL
  CREATINE PHOSPHOKINASE: 447.33 u/L
  CREATININE: 0.17 mg/dL
  GLUCOSE: 140 mg/dL
  LACTATE DEHYDROGENASE: 140 u/L
  LIPASE: 8 u/L
  PHOSPHORUS: 12.6 mg/dL
  POTASSIUM: 6.61 MEQ/L
  SODIUM: 143.77 MEQ/L
  TOTAL BILIRUBIN: 0.1 mg/dL
  TOTAL PROTEIN: 5.83 G/DL
  URIC ACID: 0.87 mg/dL
[2]
  ABSOLUTE BASOPHIL: 0 CELLS/uL
  ABSOLUTE EOSINOPHIL: 0 CELLS/uL
  ABSOLUTE LYMPHOCYTE: 7298 CELLS/uL
  ABSOLUTE MONOCYTE: 306 CELLS/uL
  ABSOLUTE SEGMENTED NEUTROPHIL: 1029.33 CELLS/uL
  BASOPHIL: 0%
  EOSINOPHIL: 0%
  ERYTHROCYTE COUNT: 5.39 x10E6/uL
  HEMATOCRIT: 34.73%
  HEMOGLOBIN: 13.23 G/DL
  LEUKOCYTE COUNT: 8.63 x10E3/uL
  LYMPHOCYTE: 84.33%
  MEAN CORPUSCULAR HEMOGLOBIN: 24.57 pg
  MEAN CORPUSCULAR HEMOGLOBIN CONCENTRATION: 38.13 G/DL
  MEAN CORPUSCULAR VOLUME: 64.5 fL
  MONOCYTE: 3.67%
  NEUTROPHIL: 12%
  NUCLEATED RED BLOOD CELLS: 0 /100WBC
  PLATELET COUNT: 1176.33 x10E3/uL
  ALANINE AMINOTRANSFERASE: 55 u/L
  ALBUMIN: 4.63 G/DL
  ALKALINE PHOSPHATASE: 445.33 u/L
  ASPARTATE AMINOTRANSFERASE: 92.67 u/L
  BLOOD UREA NITROGEN: 10 mg/dL
  CARBON DIOXIDE: 27.67 mmol/L
  CHLORIDE: 105 MEQ/L
  CHOLESTEROL: 39.67 mg/dL
  CREATINE PHOSPHOKINASE: 609.67 u/L
  CREATININE: 0.19 mg/dL
  GLUCOSE: 179 mg/dL
  LACTATE DEHYDROGENASE: 166.33 u/L
  LIPASE: 9.33 u/L
  PHOSPHORUS: 13.63 mg/dL
  POTASSIUM: 5.28 MEQ/L
  SODIUM: 147.67 MEQ/L
  TOTAL BILIRUBIN: 0.0333 mg/dL
  TOTAL PROTEIN: 6.17 G/DL
  URIC ACID: 1.6 mg/dL
[3]
  ABSOLUTE BASOPHIL: 0 CELLS/uL
  ABSOLUTE EOSINOPHIL: 0 CELLS/uL
  ABSOLUTE LYMPHOCYTE: 6159.33 CELLS/uL
  ABSOLUTE MONOCYTE: 64.67 CELLS/uL
  ABSOLUTE SEGMENTED NEUTROPHIL: 442.67 CELLS/uL
  BASOPHIL: 0%
  EOSINOPHIL: 0%
  ERYTHROCYTE COUNT: 5.12 x10E6/uL
  HEMATOCRIT: 32.3%
  HEMOGLOBIN: 11.83 G/DL
  LEUKOCYTE COUNT: 6.67 x10E3/uL
  LYMPHOCYTE: 92.33%
  MEAN CORPUSCULAR HEMOGLOBIN: 23.17 pg
  MEAN CORPUSCULAR HEMOGLOBIN CONCENTRATION: 36.63 G/DL
  MEAN CORPUSCULAR VOLUME: 63.17 fL
  MONOCYTE: 1%
  NEUTROPHIL: 6.67%
  NUCLEATED RED BLOOD CELLS: 0 /100WBC
  PLATELET COUNT: 1033.67 x10E3/uL
  ALANINE AMINOTRANSFERASE: 53.33 u/L
  ALBUMIN: 4.73 G/DL
  ALKALINE PHOSPHATASE: 564 u/L
  ASPARTATE AMINOTRANSFERASE: 87 u/L
  BLOOD UREA NITROGEN: 12.67 mg/dL
  CARBON DIOXIDE: 35.33 mmol/L
  CHLORIDE: 102.33 MEQ/L
  CHOLESTEROL: 49.67 mg/dL
  CREATINE PHOSPHOKINASE: 282.33 u/L
  CREATININE: 0.2 mg/dL
  GLUCOSE: 142.33 mg/dL
  LACTATE DEHYDROGENASE: 143.67 u/L
  LIPASE: 8.67 u/L
  PHOSPHORUS: 12.8 mg/dL
  POTASSIUM: 6.58 MEQ/L
  SODIUM: 147.03 MEQ/L
  TOTAL BILIRUBIN: 0.1 mg/dL
  TOTAL PROTEIN: 5.67 G/DL
  URIC ACID: 1 mg/dL
[4]
  ABSOLUTE BASOPHIL: 0 CELLS/uL
  ABSOLUTE EOSINOPHIL: 0 CELLS/uL
  ABSOLUTE LYMPHOCYTE: 6969 CELLS/uL
  ABSOLUTE MONOCYTE: 193.33 CELLS/uL
  ABSOLUTE SEGMENTED NEUTROPHIL: 904.33 CELLS/uL
  BASOPHIL: 0%
  EOSINOPHIL: 0%
  ERYTHROCYTE COUNT: 5.24 x10E6/uL
  HEMATOCRIT: 32.1%
  HEMOGLOBIN: 12.47 G/DL
  LEUKOCYTE COUNT: 8.07 x10E3/uL
  LYMPHOCYTE: 87.33%
  MEAN CORPUSCULAR HEMOGLOBIN: 23.8 pg
  MEAN CORPUSCULAR HEMOGLOBIN CONCENTRATION: 38.8 G/DL
  MEAN CORPUSCULAR VOLUME: 61.27 fL
  MONOCYTE: 2.33%
  NEUTROPHIL: 10.33%
  NUCLEATED RED BLOOD CELLS: 0 /100WBC
  PLATELET COUNT: 1189 x10E3/uL
  ALANINE AMINOTRANSFERASE: 57 u/L
  ALBUMIN: 5 G/DL
  ALKALINE PHOSPHATASE: 591 u/L
  ASPARTATE AMINOTRANSFERASE: 173 u/L
  BLOOD UREA NITROGEN: 15.33 mg/dL
  CARBON DIOXIDE: 35 mmol/L
  CHLORIDE: 101.67 MEQ/L
  CHOLESTEROL: 56.67 mg/dL
  CREATINE PHOSPHOKINASE: 895.67 u/L
  CREATININE: 0.17 mg/dL
  GLUCOSE: 139.67 mg/dL
  LACTATE DEHYDROGENASE: 272.67 u/L
  LIPASE: 9 u/L
  PHOSPHORUS: 11.73 mg/dL
  POTASSIUM: 6.36 MEQ/L
  SODIUM: 146.87 MEQ/L
  TOTAL BILIRUBIN: 0.0667 mg/dL
  TOTAL PROTEIN: 6.1 G/DL
  URIC ACID: 1.1 mg/dL

From ChEMBL document CHEMBL3885881, “DrugMatrix”
